ChEMBL document CHEMBL3886985, “Benzothiophene derivative” (2016)

target: T1, cAMP and cAMP-inhibited cGMP 3',5'-cyclic phosphodiesterase 10A (Homo sapiens, UniProt Q9Y233); assay: Activity Assay: Inhibitory activity-1 assay: To a solution containing 20 mM Tris-HCl (pH 7.5), 1 mM MgCl2, 100 μM EDTA, 330 μg/ml bovine serum albumin, 50 kU/ml 5′-nucleotidase, 0.1 μCi 3H-cAMP (64 nM cAMP), and PDE10A (H-PDE10A2, Human Phosphodiesterase 10A2, Scottish Biomedical), a test compound was added, and the mixture was reacted at 25° C. for 2 hours. To the reaction solution, QAE-Sephadex (17-0190-01, GE Healthcare Japan Corp.) suspended in 10 mM HEPES-Na (pH 7.0) (hereinafter, also referred to as a “QAE-Sephadex suspension”) was added, and the mixture was shaken for 1 minute and left standing for 5 minutes to obtain a supernatant. To the supernatant, a QAE-Sephadex suspension was further added, and the mixture was shaken for 1 minute and left standing for 5 minutes. Then, the obtained supernatant was transferred to LumaPlate (PerkinElmer, Inc.) and assayed using a radiation counter (TopCount NXT, PerkinElmer, Inc.).
T1 sequence (Q9Y233 whole entry): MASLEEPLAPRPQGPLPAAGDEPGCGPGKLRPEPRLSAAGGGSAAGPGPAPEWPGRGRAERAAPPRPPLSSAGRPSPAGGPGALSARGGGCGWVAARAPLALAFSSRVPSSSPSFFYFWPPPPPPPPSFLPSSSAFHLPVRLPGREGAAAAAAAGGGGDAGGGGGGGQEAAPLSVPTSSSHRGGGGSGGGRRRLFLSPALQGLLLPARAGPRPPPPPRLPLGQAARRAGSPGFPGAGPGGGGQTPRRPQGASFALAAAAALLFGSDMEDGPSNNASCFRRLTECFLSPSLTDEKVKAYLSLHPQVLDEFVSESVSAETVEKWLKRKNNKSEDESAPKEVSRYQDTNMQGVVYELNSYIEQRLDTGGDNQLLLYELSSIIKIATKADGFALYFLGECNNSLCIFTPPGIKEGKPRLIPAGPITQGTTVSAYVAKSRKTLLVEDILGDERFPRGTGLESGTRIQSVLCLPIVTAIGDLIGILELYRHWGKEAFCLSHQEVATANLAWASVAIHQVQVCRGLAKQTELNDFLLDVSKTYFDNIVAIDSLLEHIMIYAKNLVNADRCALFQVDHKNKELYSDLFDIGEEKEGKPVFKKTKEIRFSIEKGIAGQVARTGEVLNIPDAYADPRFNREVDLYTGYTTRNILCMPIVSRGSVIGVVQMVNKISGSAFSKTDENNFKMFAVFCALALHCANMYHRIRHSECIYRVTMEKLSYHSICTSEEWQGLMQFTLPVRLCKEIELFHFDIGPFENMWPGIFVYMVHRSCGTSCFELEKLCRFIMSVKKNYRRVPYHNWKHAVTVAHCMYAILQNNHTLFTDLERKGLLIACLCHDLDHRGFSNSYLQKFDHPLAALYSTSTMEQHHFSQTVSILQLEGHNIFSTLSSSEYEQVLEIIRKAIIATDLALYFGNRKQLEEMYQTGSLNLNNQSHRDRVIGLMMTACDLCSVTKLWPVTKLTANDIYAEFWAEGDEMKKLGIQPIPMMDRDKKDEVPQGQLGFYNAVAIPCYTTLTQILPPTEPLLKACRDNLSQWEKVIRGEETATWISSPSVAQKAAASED

| SMILES | IC50 [nM] |
| --- | --- |
| COCc1ccc(C(C)=O)c2sc(C(=O)Nc3ccc4c(COP(=O)(O)O)cccc4n3)c(C)c12 | 0.99 |

target: T1, cAMP and cAMP-inhibited cGMP 3',5'-cyclic phosphodiesterase 10A; assay: Activity Assay: A human acute lymphoblastic […] T cell line MOLT-4 (which can be purchased under ATCC No. CRL-1582 from ATCC) was cultured in an RPMI1640 medium containing 10% fetal bovine serum to obtain 5108 MOLT-4 cells. The cells were recovered by centrifugation and suspended in 10 ml of buffer solution A (25 mM Tris-HCl, 5 mM 2-mercaptoethanol, 2 mM benzamidine, 2 mM EDTA, and 0.1 mM 4-(2-aminoethyl)benzenesulfonyl hydrochloride, pH 7.5). The cells were homogenized using a Polytron homogenizer and centrifuged (4° C., 25,000 g, 10 minutes). Then, the supernatant was further ultracentrifuged (4° C., 100,000 g, 60 minutes). The obtained supernatant was filtered through a 0.2um filter to obtain a soluble fraction.HiTrap Q HP column (5 ml2, GE Healthcare Japan Corp.) equilibrated with buffer solution A was charged with the obtained soluble fraction. Phosphodiesterase was eluted with 300 ml of buffer solution A containing a linear gradient solution of 0 to 0.8 M NaCl to recover sixty 5-ml fractions. Each fraction was tested for cAMP-metabolizing phosphodiesterase activity. […] In order to confirm whether or not PDE10A mRNA was expressed in the MOLT-4 cells, total RNA was prepared from the MOLT-4 cells according to a standard method and analyzed by RT-PCR using PDE10A gene-specific primers (PDE10A sense primer: 5'-[…]-3' (SEQ ID NO: 1) and PDE10A antisense primer: 5'-[…]-3' (SEQ ID NO: 2)). As a result, PDE10A mRNA was detected from the total RNA of the MOLT-4 cells. On the other hand, total RNA was prepared from Jurkat cells, one type of human T cell, and similarly subjected to RT-PCR. As a result, PDE10A mRNA was rarely detected. An active peak centered around 250 mM NaCl was not observed in fractions obtained by the treatment of Jurkat cells in the same way as above. Eur J Biochem. 1999, 266 (3), 1118-2 has reported that PDE10A from the rat striatum and testis is eluted as an active peak centered around 250 mM NaCl.; assay type: cell-based

| SMILES | IC50 [nM] |
| --- | --- |
| COCc1ccc(C(C)=O)c2sc(C(=O)Nc3ccc4c(CN(C)C)cccc4n3)c(C)c12 | 1.8 |
| COCc1ccc(C(C)=O)c2sc(C(=O)Nc3ccc4c(COC(=O)CCC(=O)O)cccc4n3)c(C)c12 | 1 |
| COCc1ccc(C(C)=O)c2sc(C(=O)Nc3cc(N(C)C)c4ccccc4n3)c(C)c12 | 0.45 |
| COCc1ccc(C(C)=O)c2sc(C(=O)Nc3ccc4ccccc4n3)c(C)c12 | 1.1 |
| COCc1ccc(C(C)=O)c2sc(C(=O)Nc3ccc4c(CN5CCOCC5)cccc4n3)c(C)c12 | 1.3 |
| COCc1ccc(C(C)=O)c2sc(C(=O)Nc3ccc4c(C(=O)N5CCN(C)CC5)cccc4n3)c(C)c12 | 0.31 |
| COCc1ccc(C(C)=O)c2sc(C(=O)Nc3ccc4c(CN5CC[C@@H](F)C5)cccc4n3)c(C)c12 | 1.2 |
